Test results as given in PubChem BioAssay AID651745 (NMMLSC, 2012).
Calls of active or inactive are those of the source.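 Rule for the calls: active = GFP positive cell share at least 15% at top dose plus 60%-effect dose below 60 µM; inactive = the rest.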

system: ER-HoxA9 myeloid progenitors, lysozyme-GFP differentiation, flow cytometry; test: differentiation induction in ER-HoxA9 progenitors – cell-based, lysozyme-GFP, flow cytometry, Cherry Pick01, dose response (AID 651745); conditions: not given

| SMILES | EC50 |
| --- | --- |
| COc1ccccc1C1N(c2ccc(Cl)cc2)C(=O)C2CCCN21 (stereo not drawn) | 6.47 µM |
| C/C(=C1/SC(N2CCCC2)=NC1=O)c1ccc(Br)cc1 | 2.08 µM |
| O=C(O)c1cccnc1Nc1ccc(Cl)cc1 | 5.88 µM |
| Cn1ccc2c(-c3ccc(C(C)(C)C)cc3)cc3c(c21)C1CCC3O1 (stereo not drawn) | 5.62 µM |
| CCCCn1c(N)c(N(CC(C)C)C(=O)Cc2ccc(S(=O)(=O)N3CCOCC3)s2)c(=O)[nH]c1=O | 20.2 µM |
| Cc1ccc(Nc2nc(=O)c3cccnc3s2)c(Br)c1 | 4.47 µM |
| O=C(O)c1ccccc1Nc1ccc([N+](=O)[O-])cc1 | 6.05 µM |
| Cc1cccn2cc(COc3ccc(-c4ccccc4)cc3)nc12 | 2.24 µM |
| CCC(C)Sc1ccc(-c2nc3cc(C)ccn3c2NC2CCCCC2)cc1 (stereo not drawn) | 21.3 µM |
| Cc1cc(NC(=O)COC(=O)c2c(C)nn(Cc3ccccc3)c2Cl)no1 | 4.44 µM |
| O=C(CCNC(=O)c1ccc(Br)cc1)NC1CCCc2ccccc21 (stereo not drawn) | 5.32 µM |
| COC(=O)c1cc2c(=O)c3ccccc3oc2nc1/C=C/N(C)C | 6.88 µM |
| CC(=O)Nc1ccc(C2=CC(=O)C[C@H](c3ccc(Cl)cc3)C2)cc1 | 24.7 µM |
| O[C@H]1C[C@H](c2ccc(Cl)cc2)N(Cc2cccs2)C[C@@H]1n1cc(C2CC2)nn1 | 4.9 µM |
| N#C/C(=C\N1CCN(Cc2ccc3c(c2)OCO3)CC1)c1nc2ccccc2s1 | 6.5 µM |

system: not listed separately; test: as above; conditions: ER-HoxA9 myeloid progenitors, lysozyme-GFP differentiation, flow cytometry; at 2.19 µM (top of the series)

| SMILES | percent GFP positive (differentiation) |
| --- | --- |
| Cn1c(=O)c2cc(NC(=O)NCc3ccc(F)cc3)ccc2n1C/C=C/c1ccccc1 | 1.7% (inactive) |

same assay, conditions: ER-HoxA9 myeloid progenitors, lysozyme-GFP differentiation, flow cytometry; at 4.37 µM (top of the series)

| SMILES | percent GFP positive (differentiation) |
| --- | --- |
| O=C(NCc1ccccc1)C1=C[C@@H](c2csc3ccccc23)C[C@@H](OCc2ccc(CO)cc2)O1 | 1.2% (inactive) |
| Clc1ccc(Cn2ncc3c(N4CCN(c5ccccc5)CC4)ncnc32)cc1 | 1.8% (inactive) |
| Cc1nn(-c2ccccc2)c(N2CCCC2)c1/C=N/NC(=S)Nc1ccccc1F | 2.2% (inactive) |

same assay, conditions: ER-HoxA9 myeloid progenitors, lysozyme-GFP differentiation, flow cytometry; at 6.6 µM (top of the series)

| SMILES | percent GFP positive (differentiation) |
| --- | --- |
| CCOC(=O)c1c(NC(=O)C(C)OC(=O)c2ccc(NC(=O)CC#N)cc2)sc2c1CCCC2 (stereo not drawn) | 1.6% (inactive) |
| c1cc(SC2CCCCC2)cc(-c2nc3cnccn3c2NC2CCCCC2)c1 | 4.8% (inactive) |
| Cn1cc(-c2cnc3c(NC=O)cc(-c4cccc(C(F)(F)F)c4)cn23)cn1 | 2.3% (inactive) |
| Brc1ccc(-c2csc3[n+]2CCCCC3)cc1 | 9.9% (inactive) |
| COc1ccc(NC2=C(NC(C)=O)C(=O)c3ccccc3C2=O)cc1 | 20.3% (inactive) |

same assay, conditions: ER-HoxA9 myeloid progenitors, lysozyme-GFP differentiation, flow cytometry; at 13.2 µM (top of the series)

| SMILES | percent GFP positive (differentiation) |
| --- | --- |
| CCC1(c2ccc(F)cc2)NC(=O)N(CC(=O)N2CCN(S(=O)(=O)c3ccc(C)cc3C)CC2)C1=O (stereo not drawn) | 1.95% (inactive) |
| Nc1ccc(C#Cc2ccc3c(=O)c4ccccc4oc3c2)cc1 | 15.2% (inactive) |
| COC(=O)C1=C(c2cc3ccccc3s2)C[C@@H]2CC[C@H]1N2C(=O)NC1CCCCC1 | 4.3% (inactive) |
| CN(Cc1ccc(Cl)c(Cl)c1)C(=O)C1=CC=CN2CCS(=O)(=O)N=C12 | 6.5% (inactive) |
| CCCCOc1ccc(OC(=O)Nc2cc(Cl)ccc2OC)cc1 | 2.55% (inactive) |
| O=CNc1ccc2c3c(cccc13)-c1ccccc1-2 | 1.9% (inactive) |
| CNC(=O)c1c(NC(=O)c2ccc(S(=O)(=O)N3CCCc4ccccc43)cc2)sc2c1CCN(C)C2 | 4.8% (inactive) |
| CCCc1nc2c3ccccc3ccn2c1Cc1ccc(OC)cc1C | 2.2% (inactive) |
| CCCN1CCc2c(sc(NC(=O)c3ccc(S(=O)(=O)N(C)c4ccccc4)cc3)c2C(=O)NC)C1 | 89.5% (inactive) |
| CCOC(=O)c1c(NC(=O)C(C)Sc2cccc[n+]2[O-])sc2c1CCN(Cc1ccccc1)C2 (stereo not drawn) | 1.7% (inactive) |
| C=CCN(c1ccccc1OC)S(=O)(=O)c1ccc(Cl)c(C(=O)NCc2ccco2)c1 | 2.5% (inactive) |
| C[n+]1c(/C=C/c2ccc3c(c2)OCO3)ccc2ccccc21 | 3.3% (inactive) |
| COc1ccc(/C=C/C(O)=C2/C(=O)N(C)C3(C)CC2c2ccccc2O3)cc1 (stereo not drawn) | 5.7% (inactive) |

same assay, conditions: ER-HoxA9 myeloid progenitors, lysozyme-GFP differentiation, flow cytometry; at 19.9 µM (top of the series)

| SMILES | percent GFP positive (differentiation) |
| --- | --- |
| C/C(N)=C(/C#N)C(=O)COC(=O)c1cc(C)n(-c2ccc(F)cc2)c1C | 10.9% (inactive) |
| Cc1cccn2c(=O)c(/C=C3\SC(=S)NC3=O)c(NCCCN3CCOCC3)nc12 | 33% (inactive) |
| Cn1c(-c2ccccc2)c[n+]2c1-c1ccccc1C2 | 3.8% (inactive) |
| CCC(CO)n1c(SCc2cc(=O)oc3cc(C)ccc23)nc2ccccc2c1=O (stereo not drawn) | 2.7% (inactive) |
| COc1ccccc1NC(=O)c1cccc(S(=O)(=O)N2CCN(c3ccccc3)CC2)c1 | 4.3% (inactive) |
| O=C(CCCN1C(=O)/C(=C/c2ccco2)SC1=S)Nc1cccc(C(=O)O)c1 | 7.4% (inactive) |
| O=c1[nH][nH]cc1C=Nc1ccccc1O | 2.8% (inactive) |
| Cc1ccc(OCc2nnc(SCc3nc4ccccc4[nH]3)n2Cc2ccco2)cc1 | 3.4% (inactive) |
| CCOC(=O)C1=C(CN2CCc3ccccc32)NC(=O)NC1c1cccc([N+](=O)[O-])c1 (stereo not drawn) | 10.5% (inactive) |
| COc1ccc(-n2c(C)cc(/C=C3\SC(=S)N(Cc4ccco4)C3=O)c2C)cc1 | 7.7% (inactive) |

same assay, conditions: ER-HoxA9 myeloid progenitors, lysozyme-GFP differentiation, flow cytometry; at 39.8 µM (top of the series)

| SMILES | percent GFP positive (differentiation) |
| --- | --- |
| CCOc1ccccc1Nc1nc2ccc(C)cc2n2cnnc12 | 1.4% (inactive) |
| CC(=O)c1c(NC(=O)c2ccccc2)[nH]c(-c2ccccc2)nc1=S | 4% (inactive) |
| COc1ccc(NC(=S)N2CCC3CC2c2c(Cl)cccc23)c(OC)c1 (stereo not drawn) | 0.6% (inactive) |
| COc1ccc(C)cc1NC(=O)n1ncc2cc(Cl)ccc21 | 2.5% (inactive) |
| COc1ccccc1CN(Cc1nc2ccccc2c(=O)[nH]1)C(=O)Nc1ccc(C)cc1 | 1.4% (inactive) |
| COc1ccc(/C=C/c2cccc[n+]2C)c(O)c1 | 6.2% (inactive) |
| Cc1ccc(-c2nn3c(C)nnc3s2)cc1NC(=O)CSc1ccc(Cl)cc1 | 0.9% (inactive) |
| CCS(=O)(=O)c1nc(S(=O)(=O)c2ccc(Cl)cc2)c(N2CCC3(CC2)OCCO3)s1 | 5.1% (inactive) |
| C#CC[N+](CC)(CC)CC#Cc1ccccc1 | 4.1% (inactive) |
| O=C(O)c1ccccc1N/N=C/c1c(Sc2nnnn2-c2ccccc2)nc2ccccn2c1=O | 97.5% (inactive) |
| C[n+]1ccccc1/C=C/c1ccc2ncccc2c1 | 4.4% (inactive) |
| CC(=O)c1c(N2CCOCC2)[nH]c(-c2ccccc2)nc1=S | 5.35% (inactive) |
| Cc1cccc(N2CCN(C(=O)c3ccc4c(c3)OCCO4)CC2)c1C | 2.1% (inactive) |
| Cc1c(N=C2NN=C(c3c[nH]c4ccccc34)CS2)c(=O)n(-c2ccccc2)n1C | 5.55% (inactive) |
| COc1cccc(NC(=O)[C@H](Cc2c[nH]c3ccccc23)NC(=O)[C@@H]2Cc3ccccc3CN2)c1 | 3.5% (inactive) |
| COc1ccc(Cn2nnnc2CN2CCc3ccccc32)cc1 | 1.9% (inactive) |
| CCOC(=O)c1c(NC(=O)c2nn(CC)cc2Br)c(C#N)cn1-c1ccccc1 | 0.4% (inactive) |
| N#CC(C#N)=c1ccc2c(c1)N1C(c3ccccc3)=CC(c3ccccc3)C3CCCCC31N=2 (stereo not drawn) | 1% (inactive) |
| COc1ccc2ccccc2c1CNC(=O)CC1C(=O)NCCN1CC(C)C (stereo not drawn) | 7% (inactive) |
| O=[N+]([O-])c1ccc(C[n+]2cccc3c4ccccc4ccc32)cc1 | 3.1% (inactive) |
| CCCCN1C(N)=NC[C@@H]1Cc1ccc(O)cc1 | 3.4% (inactive) |
